Experimental findings from patent US20260137662A1, “CD11B AGONISTS FOR TREATMENT OF AUTOIMMUNE DISEASE” (Rush University Medical Center, priority 2022, published 2026) are described below.

In assay [1] the test system is IMQ-induced mouse model of lupus. Kind of assay: IMQ-induced mouse model of lupus, LA1 co-treatment i.p. To be noted: IMQ cream 8 weeks. The class given is in vivo, wild type C57BL/6 mice. The procedure:
FIG. 8A illustrates an experimental timeline for the measurement of suPAR levels, albumin creatinine ratios (ACR), anti-dsDNA antibody levels, and spleen size in wild type mouse models treated with IMQ, LA1, or IMO and LA1 co-treatment.
FIG. 8B illustrates levels of biomarker suPAR in the blood and urine of wild type mice (WT), mice treated with IMQ, mice co-treated with IMQ and vehicle DMSO or mice co-treated with IMQ and LA1 (2 mg/kg i.p. daily). Each dot represents a unique sample. Bars show mean +/−SEM (n=5).
FIG. 8C illustrates the albumin creatinine ratios (ACR) in the blood and urine of wild type mice (WT), mice treated with IMQ, mice co-treated with IMQ and vehicle DMSO or mice co-treated with IMQ and LA1 (2 mg/kg i.p. daily). Each dot represents a unique sample. Bars show mean +/−SEM (n=5).
FIG. 8D illustrates levels of anti-dsDNA antibodies in the blood and urine of wild type mice (WT), mice treated with IMQ, mice co-treated with IMQ and vehicle DMSO, or mice co-treated with IMQ and LA1 (2 mg/kg i.p. daily). Each dot represents a unique sample. Bars show mean +/−SEM (n=5).
FIG. 8E illustrates spleen size (mm) and weight (g) of wild type mice (WT), mice treated with IMQ, mice co-treated with IMQ and vehicle DMSO, or mice co-treated with IMQ and LA1. Each dot represents a unique sample. Bars show mean +/−SEM (n=5).
To investigate efficacy of LA1 as a therapeutic for SLE and autoimmune diseases in vivo, an IMQ-induced mouse model of lupus (Yokogawa et al, 2014) was used. Imiquimod (IMQ), a known TLR7 stimulant, was used to induce disease in wild type mice. Briefly, wild type C57BL/6 mice (WT) were treated topically with IMQ cream (Aldara) over the course of 8 weeks, as shown in the timeline of FIG. 8A, a group was also co-treated intraperitoneally with LA1 or vehicle DMSO. Blood and urine were collected for analysis of inflammatory cytokines and proteinuria over the course of treatment. […] Additionally, spleen size and weight were recorded.

Assay [2] concerns TLR7 mediated pathways. The experiment in a line: Relative gene expression (RT-PCR) in myeloid cells stimulated with imiquimod. Conditions: IMQ (20 ug/mL) and LA1 (20 uM) co-treatment, 4 hours. It counts as cell-based. The method, then: FIG. 3A illustrates transcriptional levels of biomarker IL-1b in myeloid cells after 4 hours of treatment with vehicle DMSO (UT), LA1 (20 uM), imiquimod (IMQ) (20 ug/mL), or IMQ and LA1 co-treatment. Bars show mean with SD (N=3) (*P<0.05, **P<0.01, ***P<0.001, ***P<0.0001).
FIG. 3B illustrates transcriptional levels of biomarker uPAR in myeloid cells after 4 hours of treatment with vehicle DMSO (UT), LA1 (20 uM), imiquimod (IMQ) (20 ug/mL), or IMQ and LA1 co-treatment. Bars show mean with SD (N=3) (*P<0.05, **P<0.01, ***P<0.001, ***P<0.0001).
FIG. 3C illustrates transcriptional levels of biomarker IL-6 in myeloid cells after 4 hours of treatment with vehicle DMSO (UT), LA1 (20 uM), imiquimod (IMQ) (20 ug/mL), or IMQ and LA1 co-treatment. Bars show mean with SD (N=3) (*P<0.05, **P<0.01, ***P<0.001, ***P<0.0001).
FIG. 3D illustrates transcriptional levels of biomarker NLRP3 in myeloid cells after 4 hours of treatment with vehicle DMSO (UT), LA1 (20 uM), imiquimod (IMQ) (20 ug/mL), or IMQ and LA1 co-treatment. Bars show mean with SD (N=3) (*P<0.05, **P<0.01, ***P<0.001, ***P<0.0001).
The impact of CD11b activation by LA1 on TLR7 mediated pathways was assessed by treating myeloid cells with imiquimod (IMQ), a known TLR7 stimulant, and co-treating myeloid cells with IMQ and LA1. Relative gene expression of various biomarkers was assessed by RT-PCR.

In assay [3] the test system is TLR-stimulation dependent pro-inflammatory pathways. The experiment in a line: suPAR and TNFa secretion from myeloid (RAW) cells stimulated with TLR-stimulants or PMA (ELISA). The class given is cell-based, murine. To be noted: co-treatment TLR-stimulant (LPS, PMA, Pam2CSK4, Pam3CSK4, IMQ) and LA1 (20 uM), 4 hours. The procedure:
FIG. 2A illustrates the levels of biomarker suPAR secretion from RAW cells after treatment with LPS (50ng/ml), PMA (0.1 ug/mL), Pam2CSK4 (0.1 ug/mL), Pam3CSK4 (0.1 ug/mL), Imiquimod (IMQ) (20 ug/mL), LA1 (20 uM), or co-treatments. Bars show mean with SD (N=3) (*P<0.05, **P<0.01, ***P<0.001, ****P<0.0001).
FIG. 2B illustrates the levels of biomarker (A) suPAR and (B) TNF-a secretion from RAW cells after treatment with LPS (50ng/ml), PMA (0.1 ug/mL), Pam2CSK4 (0.1 ug/mL), Pam3CSK4 (0.1 ug/mL), Imiquimod (IMQ) (20 ug/mL), LA1 (20 uM), or co-treatments. Bars show mean with SD (N=3) (*P<0.05, **P<0.01, ***P<0.001, ****P<0.0001).
The effect of LA1 on TLR-stimulation dependent pro-inflammatory pathways was studied by stimulating myeloid cells with different TLR-stimulants (lipopolysaccharide (LPS), Pam2CSK 4, imiquimod (IMQ)) or with phorbol 12-myristate 13-acetate (PMA) and co-treating with LA1. The levels of suPAR (pg/mL) and TNFa (pg/mL) in cell supernatant were measured 4 hours after treatment using ELISA. […] Relative gene expression was also assessed in myeloid cells treated with Poly(I:C), a known toll-like receptor (TLR) agonist, and co-treated with LA1.
On the technique in general: In an ELISA, binding on a coated surface is turned into a signal by an enzyme label.

Setting [4] is: co-treated with LA1 2 mg/kg i.p. daily, vs IMQ.

As for `O=C(O)c1ccc(-c2ccc(/C=C3\SC(=S)N(Cc4ccccc4)C3=O)o2)cc1` [LA1, (Z)-4-(5-((3-benzyl-4-oxo-2-thioxothiazolidin-5-ylidene)methyl)furan-2-yl)benzoic acid], in assay [1] (co-treated with LA1), the spleen size entry is recorded as “reduced” and the spleen weight entry is recorded as “reduced”. Also, in assay [1] (setting [4]), the “albumin creatinine ratios (ACR)” value was “significantly reduced”, the “levels of anti-dsDNA antibodies” value is “significantly reduced” and the “levels of suPAR” value is recorded as “significantly reduced”. Besides, in assay [2], the “TLR7-dependent increase in IL-1b expression level” value is on record as “significantly reduced”, the “TLR7-dependent increase in IL-6 expression level” value is “significantly reduced”, the “TLR7-dependent increase in NLRP3 expression level” value is “significantly reduced” and the “TLR7-dependent increase in uPAR expression level” value is “significantly reduced”. Besides, in assay [3], the “levels of biomarker TNFa in cell supernatant” value is reported as “significantly reduced” and the “levels of biomarker suPAR in cell supernatant” value is recorded as “significantly reduced”.
